# Results reported in article PMC10671074, “Tumor Regression upon Intratumoral and Subcutaneous Dosing of the STING Agonist ALG-031048 in Mouse Efficacy Models” (International Journal of Molecular Sciences, 2023).
# pEC50: −log10 of the molar value. Like-named read-outs stand apart in the source and are kept apart here. Marks after values point to notes of the source that are not given here.
# What was measured:
# [1] = Plasma stability, mouse; assay type: in vitro ADME; conditions: 37 °C, read-out: Plasma t½, Mouse
# Protocol: (§1) The plasma stability assay was carried out on 96-well microtiter plates. The test compounds at 5 µM and the reference compound (propantheline) at 1 µM final concentration were incubated separately at 37 °C with mouse or human plasma for 0, 30, 60, and 240 min. At the end of each incubation time point, 300 μL of the quenching solution (50% acetonitrile, 50% methanol, and 0.05% formic acid) containing the internal standard was added to each well. The incubation plates were sealed, vortexed, and centrifuged at 4 °C for 15 min at 4000 rpm. The supernatant was transferred to fresh plates for LC/MS/MS analysis of the test compounds. The peak area ratios of each test compound over the internal standard were plotted against incubation time, and the t½ was calculated from the curve assuming first-order kinetics.
# [2] = Liver microsomal stability, human; assay type: in vitro ADME; conditions: pH 7.4, 0.5 mg/mL human liver microsomes, 37 °C, read-out: Liver Microsome t½, Human
# Protocol: (§2) The liver microsomal stability assay was carried out in 96-well microtiter plates. The test compounds at 5 µM and the reference compound (verapamil) at 1 µM final concentration were incubated separately at 37 °C with 0.5 mg/mL liver microsomes, with or without 1 mM NADPH in 100 mM potassium phosphate buffer, pH 7.4 with 3.3 mM MgCl2. […] At each of the time points (0, 15, 30, and 60 min), the enzymatic reaction was terminated with the addition of 150 μL of quenching solution (100% acetonitrile, 0.1% formic acid, and the internal standard), and subsequently the mixtures were vortexed vigorously for 20 min and centrifuged at 4000 rpm at 10 °C. The supernatants (80 µL) were transferred to a clean 96-well plate and analyzed via LC/MS/MS. The peak area ratios of each test compound over the internal standard were plotted against incubation time, and the t½ was calculated from the curve assuming first-order kinetics.
# [3] = Plasma stability, human; assay type: in vitro ADME; conditions: 37 °C, read-out: Plasma t½, Human
# Protocol: as §1
# [4] = test system: primary human immature dendritic cells; assay: Activation of primary human immature dendritic cells (CD83/CD86 flow cytometry); assay type: cell-based; conditions: for pEC50: iDCs, 72 h after stimulation; for Surface expression of CD86 and CD83 (in words): iDCs and, to a lesser degree, monocytes, 24 and 72 h
# Description: Frozen human PBMCs (100 × 10^6 cells) were obtained from Stem Cell Technologies (Kent, WA, USA). Monocytes were purified from PBMCs using a CD14^+ pan-monocyte-negative isolation kit and an LS column (Miltenyi Biotec, Bergisch Gladbach, Germany). Magnetically labeled non-target cells were depleted by retaining them within a MACS column in the magnetic field of a MACS Separator, while highly purified unlabeled CD1 D16^− cells were collected and used to generate dendritic cells. To obtain immature monocyte-derived dendritic cells (iMDDCs), enriched monocytes were cultured in Mo-DC differentiation medium (Miltenyi Biotec) supplemented with human IL-4 (250 IU/mL, Miltenyi Biotec) and human GM-CSF (800 IU/mL, Miltenyi Biotec) at 37 °C in a T-150 flask in a 5% CO2 humidified incubator for 5 days; fresh media was replenished every 2–3 days.
# […] An aliquot of iMDDCs was also cultured in maturation media for 24–48 h and used as a control containing RPMI 1640, 10% FBS, 2 mM L-glutamine, and human TNF-α (6000 IU/mL, Miltenyi Biotec). The supernatant from the plate was frozen to assess cytokine production, and cells were analyzed via flow cytometry.
# Cells were incubated with phosphate-buffered saline (PBS) containing 2% FBS and 2 mM of EDTA (FACS buffer) supplemented with 2 mg/mL of normal human IgG on ice for 15 min to block Fc receptors. The cell suspension was then incubated with a predetermined optimal concentration of the appropriate fluorescent dye-labeled monoclonal antibodies (mAbs) against human cell surface markers on ice for 30 min. The fluorescent dye-labeled mAbs against human cell surface molecules included anti-CD209, anti-CD14, anti-CD11c, anti-CD40, anti-HLA-DR, anti-CD86, and anti-CD83 (BD Biosciences, Franklin Lakes, NJ, USA or BioLegend, San Diego, CA, USA). In addition, a fixable live/dead stain (Thermo Fisher Scientific) at a dilution of 1:1000 was added to exclude dead cells. After several washes with FACS buffer, cells were resuspended in FACS buffer and analyzed on an Attune Nxt flow cytometer (Thermo Fisher Scientific) with FlowJo v10 software (BD Biosciences). An aliquot of the cells to be analyzed served as controls by using “fluorescent minus-one” to establish gates and determine the frequency of positively stained cells. Ultra-comp beads (Thermo Fisher Scientific) were used as single-stained controls to set up compensation on the flow cytometer.
# [5] = test system: subcutaneous CT26 tumors; assay: CT26 mouse colon carcinoma model; conditions: Table 2 study, 3 × q3d; for Median Time to Endpoint: vehicle 19.0
# [6] = Liver microsomal stability, mouse; assay type: in vitro ADME; conditions: pH 7.4, 0.5 mg/mL mouse liver microsomes, 37 °C, read-out: Liver Microsome t½, Mouse
# Protocol: as §2
# [7] = early clinical trial, patients; cited from earlier work
# [8] = test system: primary human monocytes; assay: Activation of primary human monocytes (CD83/CD86 flow cytometry); assay type: cell-based; conditions: Monocyte, 24 h after stimulation
# Description: Frozen human PBMCs (100 × 10^6 cells) were obtained from Stem Cell Technologies (Kent, WA, USA). Monocytes were purified from PBMCs using a CD14^+ pan-monocyte-negative isolation kit and an LS column (Miltenyi Biotec, Bergisch Gladbach, Germany). Magnetically labeled non-target cells were depleted by retaining them within a MACS column in the magnetic field of a MACS Separator, while highly purified unlabeled CD1 D16^− cells were collected and used to generate dendritic cells.
# The cell suspension was then incubated with a predetermined optimal concentration of the appropriate fluorescent dye-labeled monoclonal antibodies (mAbs) against human cell surface markers on ice for 30 min. The fluorescent dye-labeled mAbs against human cell surface molecules included anti-CD209, anti-CD14, anti-CD11c, anti-CD40, anti-HLA-DR, anti-CD86, and anti-CD83 (BD Biosciences, Franklin Lakes, NJ, USA or BioLegend, San Diego, CA, USA). In addition, a fixable live/dead stain (Thermo Fisher Scientific) at a dilution of 1:1000 was added to exclude dead cells. After several washes with FACS buffer, cells were resuspended in FACS buffer and analyzed on an Attune Nxt flow cytometer (Thermo Fisher Scientific) with FlowJo v10 software (BD Biosciences). An aliquot of the cells to be analyzed served as controls by using “fluorescent minus-one” to establish gates and determine the frequency of positively stained cells. Ultra-comp beads (Thermo Fisher Scientific) were used as single-stained controls to set up compensation on the flow cytometer.
# [9] = test system: MC38-hPD-L1 tumors; assay: MC38-hPD-L1 mouse colon carcinoma model; assay type: in vivo; conditions: 5 mg/kg IP, BIW (4×)
# Description: Female C57/BL6 mice (Shanghai Lingchang Biotechnology Co., Ltd., Shanghai, China) were 5 to 8 weeks old with a body weight > 16 g at the time of inoculation. Animals were housed and fed as described above.
# After inoculation with tumor cells, the animals were checked daily for morbidity and mortality. During routine monitoring, the animals were checked for any effects of tumor growth or test articles on behavior such as mobility, food and water consumption, body weight gain/loss (body weights were measured twice per week after randomization), eye/hair matting, and any other abnormalities. Tumor volumes were measured and calculated as described above.
# Each group consisted of 10 animals. The control group was administered 5 mg/kg isotype control antibody in a volume of 10 μL/g of IP, BIW for 2.5 weeks, 5 doses total. The atezolizumab-treated group was administered 5 mg/kg in a volume of 10 μL/g of IP, BIW for 2.5 weeks, 5 doses total. […] Dosing started when average tumor volumes were 70 mm^3.
molecule,measurement,setting,value
Nc1ncnc2c1ncn2[C@@H]1O[C@@H]2CO[P@@](=O)(S)O[C@@H]3[C@H](O)[C@@H](CO[P@@](=O)(S)O[C@H]2[C@H]1O)O[C@H]3n1cnc2c(N)ncnc21 [ADU-S100],half-life at 5 µM,[1],> 60 min
same,half-life at 5 µM,[2],> 480 min
same,half-life at 5 µM,[3],> 60 min
same,pEC50,"[4]; Homo sapiens, Dendritic cell, read-out: EC50 CD83, Immature Dendritic Cells",5.10
same,pEC50,"[4]; Homo sapiens, Dendritic cell, read-out: EC50 CD86, Immature Dendritic Cells",4.60
same,Surface expression of CD86 and CD83 (in words),[4],upregulated the surface expression of CD86 and CD83
same,Animals with tumor regression by end of study,"[5]; 25 μg IT, Day 40",1 of 10
same,Delayed Response (TV > 10 and <2000 mm^3),"[5]; 25 μg IT, n = 10",40% ^a
same,Treatment Failure (TV > 2000 mm^3),"[5]; 25 μg IT, n = 10",50% ^a
same,Complete Response (TV < 10 mm^3),"[5]; 25 μg IT, n = 10, BALB/c, end of study Day 40",10% ^a
same,Median Time to Endpoint,"[5]; 25 μg IT, n = 10",36.5 days
same,Delayed Response (TV > 10 and <2000 mm^3),"[5]; 100 μg IT, n = 10",10% ^b
same,Median Time to Endpoint,"[5]; 100 μg IT, n = 10",40.0 days
same,half-life at 5 µM,[6],> 480 min
same,terminal t½,[7],10 to 23 min
same,pEC50,"[8]; read-out: EC50 CD83, Monocytes",5.41
same,pEC50,"[8]; read-out: EC50 CD86, Monocytes",6.31
"Nc1nc2c(ncn2[C@@H]2O[C@@H]3COP(=O)(O)O[C@H]4[C@@H](O)[C@H](n5cnc6c(N)ncnc65)O[C@@H]4COP(=O)(O)O[C@@H]2[C@@H]3O)c(=O)[nH]1 [2′3′ cGAMP, 2′3′ cyclic guanosine monophosphate–adenosine monophosphate]",half-life at 5 µM,[1],7.2 min
same,half-life at 5 µM,[3],12.8 min
same,Surface expression of CD86 and CD83 (in words),[4],upregulated the surface expression of CD86 and CD83
same,pEC50,"[4]; read-out: EC50 CD83, Immature Dendritic Cells",5.52
same,pEC50,"[4]; read-out: EC50 CD86, Immature Dendritic Cells",5.15
Atezolizumab: anti-human PD-L1 antibody atezolizumab biosimilar provided by Crownbio [reference compound],Tumor Reduction vs. Group 1 (vehicle),[9]; Day 11,53.7%
same,TV on Day 11 (Median),"[9]; n = 10, vehicle 2268",1050 mm^3
